Assay results published in US20230278981A1, “DICHLOROPHENOL HSD17B13 INHIBITORS AND USES THEREOF” (INIPHARM, INC., priority 2020, published 2023).

These molecules were tested against HSD17B13 (Homo sapiens (Human), UniProt Q7Z5P4) (assay: LC/MS estrone detection assay: conversion of estradiol to estrone by HSD17B13). Conditions: 4 μM estradiol, 6 mM NAD+, 30 nM HSD17B13 enzyme (E. coli expressed His-tagged), 2 hours at 26.5° C.
Format: biochemical
Method: The liquid chromatography/mass spectrometry (LC/MS) estrone detection assay monitors the conversion of estradiol to estrone by HSD17B13. This assay was undertaken in a 96wp format (Eppendorf deep well Plate 96/500) in an 80 μl reaction volume containing: 4 μM of Estradiol (E2; Cayman; Ser. No. 10/006,315), 6 mM NAD+(Sigma; #N0623) and 30 nM HSD17B13 enzyme (in-house; E. coli expressed His-tagged, purified, soluble protein) in a reaction containing […] potassium phosphate buffer pH 7.4, with 0.5% vehicle (DMSO). Reactions were incubated for 2 hours at 26.5° C., and estradiol (E2) conversion to estrone (E1) was quantitated by LC-MS/MS based analyte detection for both E2 and E1 using LCMS grade reagents.
Reactions were terminated by the addition of two volumes of acetonitrile (MeCN; LCMS grade; CAS #75/05/8) containing deuterated (D4)-E1 used as internal standard (Clear Synth; #CS-T-54273; 500 ng/mL final concentration). Samples were applied to pre-prepared Bond Elut-C18 extraction cartridges (3 mL; Agilent; Ser. No. 12/102,028), washed and eluted in MeCN. Eluates were dried under nitrogen and re-suspended in 60% methanol (LCMS grade methanol; CAS #67/56/1) before submission for analysis. Aqueous linearity for E2 and E1 were included for quantification.
Analysis of samples was undertaken on a XBridge BEH C18 column (Waters; #186003033) using 0.1% Diethyl Amine in MeCN (mobile phase A; DEA CAS #109-89-7) and 0.1% Diethyl Amine in milli-Q water (mobile phase B) in a 3 min gradient allowing 25% B. Analytes were detected in negative mode using MRM analysis, with E2 having a RT of 1.85 min and E1 having a RT of 2 min. Activity of the enzyme, in the absence of NAD^+, was used to evaluate specificity of conversion. Enzyme activity in the presence of test samples was expressed as a percentage of the uninhibited enzyme activity, and plotted versus inhibitor concentration. Non-linear regression was performed using a four-parameter logistic model and GraphPad Prism software (GraphPad Software, La Jolla, Calif.). All assessments were undertaken in duplicate evaluations and pooled during extraction process and subsequently injected as duplicates for LC-MS/MS analysis.

Sequence of HSD17B13 (Q7Z5P4 20-300): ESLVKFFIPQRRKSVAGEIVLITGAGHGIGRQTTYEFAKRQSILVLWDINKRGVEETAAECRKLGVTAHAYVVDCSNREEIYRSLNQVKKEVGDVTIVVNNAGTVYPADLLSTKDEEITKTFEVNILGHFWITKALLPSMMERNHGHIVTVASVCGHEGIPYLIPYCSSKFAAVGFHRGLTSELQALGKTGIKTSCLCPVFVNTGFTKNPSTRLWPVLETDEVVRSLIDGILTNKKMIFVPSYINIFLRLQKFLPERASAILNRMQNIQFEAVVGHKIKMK

Compound	IC50
O=C(Nc1cccc2ncn([C@@H]3C[C@H]3c3ccccc3)c(=O)c12)c1cc(Cl)c(O)c(Cl)c1 (racemic) [Example 102, Rac-3,5-dichloro-4-hydroxy-N-(4-oxo-3-((1R,2S)-2-phenylcyclopropyl)-3,4-dihydroquinazolin-5-yl)benzamide]	1000 to 10000 nM
O=C(Nc1cccc2ncn([C@@H]3CC[C@H]3c3ccccc3)c(=O)c12)c1cc(Cl)c(O)c(Cl)n1 (racemic) [Example 175, rac-4,6-dichloro-5-hydroxy-N-(4-oxo-3-((1R,2S)-2-phenylcyclobutyl)-3,4-dihydroquinazolin-5-yl)picolinamide]	100 to 500 nM
O=C(Nc1cccc2ncn(Cc3ccccc3)c(=O)c12)c1cc(Cl)c(O)c(Cl)c1 [Example 1, N-(3-benzyl-4-oxo-3,4-dihydroquinazolin-5-yl)-3,5-dichloro-4-hydroxybenzamide]	100 to 500 nM
O=C(Nc1cccc2ncn(Cc3ccccc3OC(F)(F)F)c(=O)c12)c1cc(Cl)c(O)c(Cl)c1 [Example 2, 3,5-dichloro-4-hydroxy-N-(4-oxo-3-(2-(trifluoromethoxy)benzyl)-3,4-dihydroquinazolin-5-yl)benzamide]	≤ 100 nM
O=C(Nc1cccc2ncn(CC3CC3)c(=O)c12)c1cc(Cl)c(O)c(Cl)c1 [Example 3, 3,5-dichloro-N-(3-(cyclopropylmethyl)-4-oxo-3,4-dihydroquinazolin-5-yl)-4-hydroxybenzamide]	100 to 500 nM
O=C(Nc1cccc2ncn(Cc3cc[nH]c(=O)c3)c(=O)c12)c1cc(Cl)c(O)c(Cl)c1 [Example 4, 3,5-dichloro-4-hydroxy-N-(3-((2-hydroxypyridin-4-yl)methyl)-4-oxo-3,4-dihydroquinazolin-5-yl)benzamide]	1000 to 10000 nM
COc1ccccc1Cn1cnc2cccc(NC(=O)c3cc(Cl)c(O)c(Cl)c3)c2c1=O [Example 5, 3,5-dichloro-4-hydroxy-N-(3-(2-methoxybenzyl)-4-oxo-3,4-dihydroquinazolin-5-yl)benzamide]	100 to 500 nM
O=C(Nc1cccc2ncn(Cc3ccc(C(F)(F)F)cc3)c(=O)c12)c1cc(Cl)c(O)c(Cl)c1 [Example 6, 3,5-dichloro-4-hydroxy-N-(4-oxo-3-(4-(trifluoromethyl)benzyl)-3,4-dihydroquinazolin-5-yl)benzamide]	≤ 100 nM
O=C(Nc1cccc2ncn(Cc3ccc(F)cc3)c(=O)c12)c1cc(Cl)c(O)c(Cl)c1 [Example 7, 3,5-dichloro-N-(3-(4-fluorobenzyl)-4-oxo-3,4-dihydroquinazolin-5-yl)-4-hydroxybenzamide]	100 to 500 nM
O=C(Nc1cccc2ncn(Cc3ccc(OC(F)(F)F)cc3)c(=O)c12)c1cc(Cl)c(O)c(Cl)c1 [Example 8, 3,5-dichloro-4-hydroxy-N-(4-oxo-3-(4-(trifluoromethoxy)benzyl)-3,4-dihydroquinazolin-5-yl)benzamide]	100 to 500 nM
O=C(Nc1cccc2ncn(Cc3ccccc3F)c(=O)c12)c1cc(Cl)c(O)c(Cl)c1 [Example 9, 3,5-dichloro-N-(3-(2-fluorobenzyl)-4-oxo-3,4-dihydroquinazolin-5-yl)-4-hydroxybenzamide]	100 to 500 nM
O=C(Nc1cccc2ncn(Cc3cccc(OC(F)(F)F)c3)c(=O)c12)c1cc(Cl)c(O)c(Cl)c1 [Example 10, 3,5-dichloro-4-hydroxy-N-(4-oxo-3-(3-(trifluoromethoxy)benzyl)-3,4-dihydroquinazolin-5-yl)benzamide]	≤ 100 nM
O=C(Nc1cccc2ncn(Cc3cccc(C(F)(F)F)c3)c(=O)c12)c1cc(Cl)c(O)c(Cl)c1 [Example 11, 3,5-dichloro-4-hydroxy-N-(4-oxo-3-(3-(trifluoromethyl)benzyl)-3,4-dihydroquinazolin-5-yl)benzamide]	≤ 100 nM
C[C@@H](c1cccc(F)c1)n1cnc2cccc(NC(=O)c3cc(Cl)c(O)c(Cl)c3)c2c1=O [Example 12, (S)-3,5-dichloro-N-(3-(1-(3-fluorophenyl)ethyl)-4-oxo-3,4-dihydroquinazolin-5-yl)-4-hydroxybenzamide]	≤ 100 nM
O=C(Nc1cccc2ncn(Cc3ccncc3F)c(=O)c12)c1cc(Cl)c(O)c(Cl)c1 [Example 13, 3,5-dichloro-N-(3-((3-fluoropyridin-4-yl)methyl)-4-oxo-3,4-dihydroquinazolin-5-yl)-4-hydroxybenzamide]	500 to 1000 nM
O=C(Nc1cccc2ncn(Cc3nncs3)c(=O)c12)c1cc(Cl)c(O)c(Cl)c1 [Example 14, N-(3-((1,3,4-thiadiazol-2-yl)methyl)-4-oxo-3,4-dihydroquinazolin-5-yl)-3,5-dichloro-4-hydroxybenzamide]	1000 to 10000 nM

Compound	IC50
O=C(Nc1cccc2ncn(Cc3cocn3)c(=O)c12)c1cc(Cl)c(O)c(Cl)c1 [Example 15, 3,5-dichloro-4-hydroxy-N-(3-(oxazol-4-ylmethyl)-4-oxo-3,4-dihydroquinazolin-5-yl)benzamide]	500 to 1000 nM
O=C(Nc1cccc2ncn(Cc3cccc(F)c3)c(=O)c12)c1cc(Cl)c(O)c(Cl)c1 [Example 16, 3,5-dichloro-N-(3-(3-fluorobenzyl)-4-oxo-3,4-dihydroquinazolin-5-yl)-4-hydroxybenzamide]	100 to 500 nM
O=C(Nc1cccc2ncn(Cc3ccncc3)c(=O)c12)c1cc(Cl)c(O)c(Cl)c1 [Example 17, 3,5-dichloro-4-hydroxy-N-(4-oxo-3-(pyridin-4-ylmethyl)-3,4-dihydroquinazolin-5-yl)benzamide]	1000 to 10000 nM
O=C(Nc1cccc2ncn(Cc3ccccc3C(F)(F)F)c(=O)c12)c1cc(Cl)c(O)c(Cl)c1 [Example 18, 3,5-dichloro-4-hydroxy-N-(4-oxo-3-(2-(trifluoromethyl)benzyl)-3,4-dihydroquinazolin-5-yl)benzamide]	≤ 100 nM
O=C(Nc1cccc2ncn(Cc3ccc(C(F)(F)F)nc3)c(=O)c12)c1cc(Cl)c(O)c(Cl)c1 [Example 19, 3,5-dichloro-4-hydroxy-N-(4-oxo-3-((6-(trifluoromethyl)pyridin-3-yl)methyl)-3,4-dihydroquinazolin-5-yl)benzamide]	100 to 500 nM
O=C(Nc1cccc2ncn(C3(c4ccccc4)CC3)c(=O)c12)c1cc(Cl)c(O)c(Cl)c1 [Example 20, 3,5-dichloro-4-hydroxy-N-(4-oxo-3-(1-phenylcyclopropyl)-3,4-dihydroquinazolin-5-yl) benzamide]	1000 to 10000 nM
O=C(Nc1cccc2ncn(C3(c4ccccc4F)CC3)c(=O)c12)c1cc(Cl)c(O)c(Cl)c1 [Example 21, 3,5-dichloro-N-(3-(1-(2-fluorophenyl)cyclopropyl)-4-oxo-3,4-dihydroquinazolin-5-yl)-4-hydroxybenzamide]	≤ 100 nM
O=C(Nc1cccc2ncn(Cc3cccc(F)c3)c(=O)c12)c1cc(Cl)c(O)c(Cl)n1 [Example 22, 4,6-dichloro-N-{3-[(3-fluorophenyl)methyl]-4-oxo-3,4-dihydroquinazolin-5-yl}-5-hydroxypyridine-2-carboxamide]	≤ 100 nM
O=C(Nc1cccc2ncn(Cc3ccccc3OC(F)(F)F)c(=O)c12)c1cc(Cl)c(O)c(Cl)n1 [Example 23, 4,6-dichloro-5-hydroxy-N-(4-oxo-3-{[2-(trifluoromethoxy)phenyl]methyl}-3,4-dihydroquinazolin-5-yl)pyridine-2-carboxamide]	100 to 500 nM
O=C(Nc1ncsc1C(=O)NCc1ccccc1F)c1cc(Cl)c(O)c(Cl)c1 [Example 24, 4-(3,5-dichloro-4-hydroxybenzamido)-N-(2-fluorobenzyl)thiazole-5-carboxamide]	1000 to 10000 nM
O=C(Nc1ncsc1C(=O)NCCc1ccccc1C(F)(F)F)c1cc(Cl)c(O)c(Cl)c1 [Example 25, 4-(3,5-dichloro-4-hydroxybenzamido)-N-(2-(trifluoromethyl)phenethyl) thiazole-5-carboxamide]	100 to 500 nM
O=C(Nc1ncsc1C(=O)NCc1ccccc1C(F)(F)F)c1cc(Cl)c(O)c(Cl)c1 [Example 26, 4-(3,5-dichloro-4-hydroxybenzamido)-N-(2-(trifluoromethyl)benzyl)thiazole-5-carboxamide]	100 to 500 nM
O=C(Nc1ncsc1C(=O)NCc1ccccc1OC(F)(F)F)c1cc(Cl)c(O)c(Cl)c1 [Example 27, 4-(3,5-dichloro-4-hydroxybenzamido)-N-(2-(trifluoromethoxy)benzyl)thiazole-5-carboxamide]	100 to 500 nM
O=C(Nc1ncsc1C(=O)NCc1ccc(F)cc1F)c1cc(Cl)c(O)c(Cl)c1 [Example 28, 4-(3,5-dichloro-4-hydroxybenzamido)-N-(2,4-difluorobenzyl)thiazole-5-carboxamide]	1000 to 10000 nM
O=C(Nc1ncsc1C(=O)NC1(c2ccc(F)cc2)CC1)c1cc(Cl)c(O)c(Cl)c1 [Example 29, 4-(3,5-dichloro-4-hydroxybenzamido)-N-(1-(4-fluorophenyl)cyclopropyl)thiazole-5-carboxamide]	100 to 500 nM
